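Results reflect a 48-hour exposure of cells in 96-well plates to compound at five concentrations. Abbreviation: GI50, concentration required for 50% inhibition of growth.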 Activity calls are given as the source filed them. No stated cut-off is given here; in the data, active = GI50 up to about 1.1 µM and inactive = higher.
What was measured:
Assay in all cases: NCI-60 cell line screen, 48 h
CCRF-CEM = tested on: CCRF-CEM
SK-MEL-28 = tested on: SK-MEL-28
U-251 = tested on: U-251
SF-295 = tested on: SF-295
OVCAR-3 = tested on: OVCAR-3
M14 = tested on: M14
K562 = tested on: K562
MDA-MB-231 = tested on: MDA-MB-231
NCI-H460 = tested on: NCI-H460
HL-60 = tested on: HL-60
IGROV-1 = tested on: IGROV-1
RXF 393 = tested on: RXF 393
SF-268 = tested on: SF-268
OVCAR-4 = tested on: OVCAR-4
UO-31 = tested on: UO-31
LOX IMVI = tested on: LOX IMVI
SK-MEL-2 = tested on: SK-MEL-2
NCI-H226 = tested on: NCI-H226
MDA-MB-435 = tested on: MDA-MB-435
HT-29 = tested on: HT-29

Measured: GI50

O=C(Nc1ccc(Cl)cc1)c1cc(S(=O)(=O)N2CCNNC2=O)c(S)cc1Cl
inactive: CCRF-CEM 97.7 µM | SK-MEL-28 > 100 µM | U-251 > 100 µM | SF-295 > 100 µM | OVCAR-3 > 100 µM | M14 > 100 µM | K562 > 100 µM | MDA-MB-231 > 100 µM | NCI-H460 > 100 µM | HL-60 > 100 µM | IGROV-1 > 100 µM | RXF 393 17.4 µM | SF-268 > 100 µM | OVCAR-4 > 100 µM | UO-31 > 100 µM | LOX IMVI > 100 µM | SK-MEL-2 > 100 µM | NCI-H226 > 100 µM | MDA-MB-435 > 100 µM

O=C(O)C12C3CCC(CC3)C1(C(=O)O)C1CCC2C1 (stereo unspecified)
inactive: CCRF-CEM > 100 µM | SK-MEL-28 > 100 µM | U-251 > 100 µM | SF-295 > 100 µM | OVCAR-3 > 100 µM | M14 > 100 µM | K562 > 100 µM | MDA-MB-231 > 100 µM | NCI-H460 > 100 µM | HL-60 > 100 µM | IGROV-1 > 100 µM | RXF 393 > 100 µM | SF-268 > 100 µM | HT-29 > 100 µM | UO-31 > 100 µM | LOX IMVI > 100 µM | SK-MEL-2 > 100 µM | NCI-H226 > 100 µM | MDA-MB-435 > 100 µM

O=C1O/C(=C(/Cl)c2c3ccccc3cc3ccccc23)c2ccccc21
inactive: CCRF-CEM 4 µM | SK-MEL-28 40.7 µM | U-251 30.5 µM | SF-295 47 µM | OVCAR-3 20.1 µM | M14 21.4 µM | K562 13.8 µM | MDA-MB-231 19.9 µM | NCI-H460 26.5 µM | HL-60 4.1 µM | IGROV-1 22.5 µM | RXF 393 33.3 µM | SF-268 30.5 µM | OVCAR-4 17.2 µM | HT-29 13.1 µM | UO-31 44.2 µM | LOX IMVI 3.33 µM | SK-MEL-2 15.8 µM | NCI-H226 26.7 µM | MDA-MB-435 22.2 µM

COC(=O)c1ccc(CCc2cc(O)c(Br)cc2O)cc1
inactive: CCRF-CEM 1.98 µM | SK-MEL-28 17.5 µM | U-251 12.6 µM | SF-295 14.1 µM | OVCAR-3 8.02 µM | M14 15.6 µM | K562 1.74 µM | MDA-MB-231 15.1 µM | NCI-H460 16.8 µM | HL-60 1.86 µM | IGROV-1 14.6 µM | RXF 393 16.6 µM | SF-268 13.5 µM | OVCAR-4 11.2 µM | HT-29 16.8 µM | UO-31 6.47 µM | LOX IMVI 13.7 µM | SK-MEL-2 18.9 µM | NCI-H226 21.4 µM | MDA-MB-435 8.49 µM

CCn1c2c(c3c(C(=O)OC)c(O)ccc31)C(=O)c1ccccc1C2=O
inactive: CCRF-CEM 15 µM | SK-MEL-28 16.9 µM | U-251 14.7 µM | SF-295 17.3 µM | OVCAR-3 16.4 µM | M14 14.2 µM | K562 20.4 µM | MDA-MB-231 15.4 µM | NCI-H460 7.19 µM | HL-60 22.1 µM | IGROV-1 3.61 µM | RXF 393 16.1 µM | SF-268 15.3 µM | OVCAR-4 10.2 µM | HT-29 19.3 µM | UO-31 4.57 µM | LOX IMVI 13.2 µM | SK-MEL-2 11.5 µM | NCI-H226 9.18 µM | MDA-MB-435 12.9 µM

Cc1c2c(n3c(nc4ccccc43)c1C#N)N(c1ccc(Cl)cc1)CC2
inactive: CCRF-CEM > 100 µM | SK-MEL-28 > 100 µM | U-251 > 100 µM | SF-295 > 100 µM | OVCAR-3 > 100 µM | M14 > 100 µM | K562 > 100 µM | MDA-MB-231 > 100 µM | NCI-H460 > 100 µM | HL-60 > 100 µM | IGROV-1 > 100 µM | RXF 393 > 100 µM | SF-268 > 100 µM | OVCAR-4 > 100 µM | HT-29 > 100 µM | UO-31 > 100 µM | LOX IMVI > 100 µM | SK-MEL-2 > 100 µM | NCI-H226 > 100 µM | MDA-MB-435 > 100 µM

CN(Cc1cc(Br)cc(Br)c1O)Cc1c(O)ccc2ccccc12
inactive: CCRF-CEM 20.7 µM | SK-MEL-28 20 µM | U-251 19.3 µM | SF-295 21.5 µM | OVCAR-3 15.2 µM | M14 17.2 µM | K562 19.8 µM | MDA-MB-231 16.7 µM | NCI-H460 19.1 µM | HL-60 18.3 µM | IGROV-1 20.2 µM | RXF 393 19.4 µM | SF-268 24.9 µM | OVCAR-4 16.5 µM | HT-29 14.5 µM | UO-31 14.9 µM | LOX IMVI 19.8 µM | SK-MEL-2 17.8 µM | NCI-H226 20.6 µM | MDA-MB-435 18 µM

CN1C(c2ccccc2)CC(=NOCc2ccccc2)CC1c1ccccc1 (stereo unspecified)
inactive: CCRF-CEM 11.6 µM | SK-MEL-28 40.8 µM | U-251 34.1 µM | SF-295 44.2 µM | OVCAR-3 29 µM | M14 42.5 µM | K562 13.8 µM | MDA-MB-231 43.7 µM | NCI-H460 19.1 µM | HL-60 19 µM | IGROV-1 38.1 µM | RXF 393 54.5 µM | SF-268 24.3 µM | OVCAR-4 22.5 µM | HT-29 26.2 µM | UO-31 43.6 µM | LOX IMVI 14.8 µM | SK-MEL-2 57.4 µM | NCI-H226 52.8 µM | MDA-MB-435 16.9 µM

Nc1nc(Cl)c(N)c(NCC2(CO)CC(OCc3ccccc3)C2)n1 (stereo unspecified)
inactive: CCRF-CEM > 100 µM | SK-MEL-28 > 100 µM | U-251 > 100 µM | SF-295 > 100 µM | OVCAR-3 > 100 µM | M14 > 100 µM | K562 74.6 µM | MDA-MB-231 > 100 µM | NCI-H460 > 100 µM | HL-60 > 100 µM | IGROV-1 > 100 µM | RXF 393 > 100 µM | SF-268 > 100 µM | OVCAR-4 > 100 µM | HT-29 > 100 µM | UO-31 > 100 µM | LOX IMVI 9.35 µM | SK-MEL-2 > 100 µM | NCI-H226 > 100 µM | MDA-MB-435 > 100 µM

OC1CN2Cc3cc4c(cc3[C@]13C=C[C@@H](O)CC23)OCO4 (stereo partly specified)
inactive: CCRF-CEM 8.57 µM | SK-MEL-28 48.4 µM | U-251 30.8 µM | SF-295 33.6 µM | OVCAR-3 37.2 µM | M14 20.5 µM | K562 23.7 µM | MDA-MB-231 59.3 µM | NCI-H460 14.4 µM | HL-60 21.2 µM | IGROV-1 18.3 µM | RXF 393 15.7 µM | SF-268 29.3 µM | OVCAR-4 19.8 µM | HT-29 10.9 µM | UO-31 33.6 µM | LOX IMVI 30 µM | SK-MEL-2 31.6 µM | NCI-H226 > 100 µM | MDA-MB-435 20 µM

CCOC(=O)C12OC(CCC1=O)C(C(=O)OC)=C2C(=O)OC (stereo unspecified)
inactive: CCRF-CEM > 10 µM | SK-MEL-28 > 10 µM | U-251 > 10 µM | SF-295 > 10 µM | OVCAR-3 > 10 µM | M14 > 10 µM | K562 > 10 µM | MDA-MB-231 > 10 µM | NCI-H460 > 10 µM | HL-60 > 10 µM | IGROV-1 > 10 µM | RXF 393 > 10 µM | SF-268 > 10 µM | OVCAR-4 > 10 µM | HT-29 > 10 µM | UO-31 > 10 µM | LOX IMVI > 10 µM | SK-MEL-2 > 10 µM | NCI-H226 > 10 µM | MDA-MB-435 > 10 µM

Cc1noc(C)c1-n1nc2ccc3nonc3c2n1
inactive: CCRF-CEM > 100 µM | SK-MEL-28 > 100 µM | U-251 30.1 µM | SF-295 31.7 µM | OVCAR-3 > 100 µM | M14 > 100 µM | K562 > 100 µM | MDA-MB-231 > 65.9 µM | NCI-H460 > 100 µM | HL-60 > 100 µM | IGROV-1 81.7 µM | RXF 393 23 µM | SF-268 41 µM | OVCAR-4 > 100 µM | HT-29 > 100 µM | UO-31 47.2 µM | LOX IMVI > 100 µM | SK-MEL-2 48.9 µM | NCI-H226 > 81.8 µM | MDA-MB-435 > 100 µM

CC1(C)CN=C(Nc2ccc(Cl)cc2)S1
inactive: CCRF-CEM 74.3 µM | SK-MEL-28 > 100 µM | U-251 > 100 µM | SF-295 > 100 µM | OVCAR-3 71.9 µM | M14 > 100 µM | K562 > 100 µM | MDA-MB-231 > 100 µM | HL-60 30.5 µM | IGROV-1 > 100 µM | RXF 393 > 100 µM | SF-268 > 100 µM | OVCAR-4 72.3 µM | HT-29 43.1 µM | UO-31 37.2 µM | LOX IMVI 78.3 µM | SK-MEL-2 > 100 µM | NCI-H226 > 100 µM | MDA-MB-435 > 100 µM

O=C(O)c1nc2ccccc2nc1NCc1ccc(F)cc1
inactive: CCRF-CEM 50.5 µM | SK-MEL-28 > 100 µM | U-251 52.7 µM | SF-295 38 µM | OVCAR-3 42.2 µM | M14 > 100 µM | K562 56.1 µM | MDA-MB-231 68.7 µM | NCI-H460 60.7 µM | HL-60 45.8 µM | IGROV-1 46.6 µM | RXF 393 > 100 µM | SF-268 57 µM | HT-29 69.5 µM | UO-31 45.3 µM | LOX IMVI 36.8 µM | SK-MEL-2 94.4 µM | NCI-H226 51.6 µM | MDA-MB-435 > 100 µM

Source: ChEMBL document CHEMBL1201862, “PubChem BioAssay data set” (2004)
